These results are taken from US9353107B2 (Aurigene Discovery Technologies Limited, priority 2012, dated 2016).

This test has as its target T1, recombinant human ALK enzyme (ALK WT) (Homo sapiens, UniProt Q9UM73).
T1 construct: purchased Carna Biosciences 08-518
Kind of test: ALK WT cell free enzymatic assay (TR-FRET). The following applies: 1 μM ATP; for IC50: 10 point dose response; for inhibition at 1 µM: compound at 1 μM; for inhibition at 1 µM / inhibition at 0.1 µM: 30 min pre-incubation; for inhibition at 0.1 µM: compound at 100 nM. The test is classed as biochemical. How it is done: ALK Wild Type (WT) The ALK WT cell free assay was set up to evaluate the effects of these compounds as inhibitors of ALK enzyme. The enzymatic assay was standardized using recombinant human ALK enzyme (Cat#08-518) from Carna Biosciences using Ultra Light Poly GT (Cat# TRF 0100D) from Perkin Elmer as a substrate. TR-FRET (Time resolved fluorescence resonance energy transfer) detection technology was used for the read out. The final assay conditions were 50 mM HEPES pH 7.1, 10 mM MgCl2, 2 mM MnCl2, 0.01% BSA, 2.5 mM DTT, 0.1 mM Na3 VO4, 40 nM Ultra Light Poly GT, 2.5 ng ALK WT enzyme, 1 μM ATP and 125 nM Lance Eu-W1024 labeled anti phospho tyrosine antibody (Cat# AD0203, Perkin Elmer) in 384 well format. The assay reaction time with the substrate was 30 minutes after which the antibody detection mix is added. The TR-FRET signal (Excitation at 340 nm, Emission at 615 nm and 665 nm) was read with 50 μs delay time on Victor^3 V fluorimeter. The data is calculated using the ratio of reading at 665 nM to 615 nM. The final concentration of DMSO was 1% in the assay. Compounds were screened at 100 nM and 1 μM concentrations with pre-incubation of the enzymes with compound for 30 minutes. Each individual IC50 was determined using 10 point dose response curve generated by GraphPad Prism software Version 4 (San Diego, Calif., USA) using non linear regression curve fit for sigmoidal dose response (variable slope). Percentage inhibition at concentrations of 100 nM and 1.0 μM are given in table along with the IC50 (nM) details for selected examples.
Background: In TR-FRET formats the signal depends on donor and acceptor labels being close together.

T1 sequence (Q9UM73 1058-1620 limits assumed): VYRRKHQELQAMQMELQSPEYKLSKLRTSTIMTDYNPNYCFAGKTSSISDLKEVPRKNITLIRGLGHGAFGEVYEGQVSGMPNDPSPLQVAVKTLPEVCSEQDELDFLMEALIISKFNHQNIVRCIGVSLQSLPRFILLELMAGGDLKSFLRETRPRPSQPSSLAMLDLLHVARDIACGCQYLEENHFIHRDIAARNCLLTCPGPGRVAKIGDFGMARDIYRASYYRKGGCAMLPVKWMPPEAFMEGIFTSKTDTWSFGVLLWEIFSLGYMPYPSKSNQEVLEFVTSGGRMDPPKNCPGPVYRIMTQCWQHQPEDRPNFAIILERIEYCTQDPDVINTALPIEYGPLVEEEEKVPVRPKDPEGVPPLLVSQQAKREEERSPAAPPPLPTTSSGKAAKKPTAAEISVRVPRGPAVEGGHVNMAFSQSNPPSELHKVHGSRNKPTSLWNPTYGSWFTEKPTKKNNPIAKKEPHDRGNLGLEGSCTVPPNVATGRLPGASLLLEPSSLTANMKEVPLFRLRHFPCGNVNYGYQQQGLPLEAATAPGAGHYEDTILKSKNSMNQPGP

By IC50 is commonly meant the midpoint of a concentration-inhibition curve. As usually defined, the inhibition is the percentage by which the read-out fell short of the control. Turning to `CS(=O)(=O)Nc1cccc(-c2cnc3[nH]cc(-c4cnn(Cc5ccccc5F)c4)c3c2)c1` [Example 1, N-(3-(3-(1-(2-fluorobenzyl)-1H-pyrazol-4-yl)-1H-pyrrolo[2,3-b]pyridin-5-yl)phenyl)methanesulfonamide], the IC50 was 50 to 250 nM and the inhibition at 1 µM worked out at 92%.
With `CS(=O)(=O)Nc1cccc(-c2cnc3[nH]cc(-c4cnn(Cc5cccc(C(F)(F)F)c5)c4)c3c2)c1` [Example 2, N-(3-(3-(1-(3-(trifluoromethyl)benzyl)-1H-pyrazol-4-yl)-1H-pyrrolo[2,3-b]pyridin-5-yl)phenyl) methanesulfonamide], the IC50 is > 250 nM and the inhibition at 1 µM is 33%.
For `COc1ccc(Cn2cc(-c3c[nH]c4ncc(-c5cccc(NS(C)(=O)=O)c5)cc34)cn2)cc1` [Example 3, N-(3-(3-(1-(4-methoxybenzyl)-1H-pyrazol-4-yl)-1H-pyrrolo[2,3-b]pyridin-5-yl)phenyl)n methane sulfonamide], in that order: > 250 nM and 65%.
For `CS(=O)(=O)Nc1cccc(-c2cnc3[nH]cc(-c4cnn(Cc5cc(F)ccc5F)c4)c3c2)c1` [Example 4, N-(3-(3-(1-(2,5-difluorobenzyl)-1H-pyrazol-4-yl)-1H-pyrrolo[2,3-b]pyridin-5-yl)phenyl)methane sulfonamide], in that order: 50 to 250 nM and 95%.
On the same counts, the results for `CS(=O)(=O)Nc1cccc(-c2cnc3[nH]cc(-c4cnn(Cc5ccc(F)cc5)c4)c3c2)c1` [Example 5, N-(3-(3-(1-(4-fluorobenzyl)-1H-pyrazol-4-yl)-1H-pyrrolo[2,3-b]pyridin-5-yl)phenyl) methanesulfonamide] are 50 to 250 nM and 69%.
On to `CS(=O)(=O)Nc1cccc(-c2cnc3[nH]cc(-c4cnn(Cc5cc(F)cc(F)c5)c4)c3c2)c1` [Example 6, N-(3-(3-(1-(3,5-difluorobenzyl)-1H-pyrazol-4-yl)-1H-pyrrolo[2,3-b]pyridin-5-yl)phenyl) methane sulfonamide], for which the concentration for half-maximal inhibition (IC50) is < 50 nM and the inhibition at 1 µM was found to be 99%.
For `CS(=O)(=O)Nc1cccc(-c2cnc3[nH]cc(-c4cnn(Cc5cccc([N+](=O)[O-])c5)c4)c3c2)c1` [Example 7, N-(3-(3-(1-(3-nitrobenzyl)-1H-pyrazol-4-yl)-1H-pyrrolo[2,3-b]pyridin-5-yl)phenyl)methane sulfonamide], the inhibition at 0.1 µM worked out at 20% and the inhibition at 1 µM stood at 53%.
Take `CS(=O)(=O)Nc1cccc(-c2cnc3[nH]cc(-c4cnn(Cc5cccc(N)c5)c4)c3c2)c1` [Example 8, N-(3-(3-(1-(3-aminobenzyl)-1H-pyrazol-4-yl)-1H-pyrrolo[2,3-b]pyridin-5-yl)phenyl) methane sulfonamide]: the half-inhibitory concentration (IC50) is < 50 nM, the inhibition at 0.1 µM stood at 81% and the inhibition at 1 µM was found to be 97%.
As to `CS(=O)(=O)Nc1cccc(-c2cnc3[nH]cc(-c4cnn(Cc5cccc(F)c5)c4)c3c2)c1` [Example 9, N-(3-(3-(1-(3-fluorobenzyl)-1H-pyrazol-4-yl)-1H-pyrrolo[2,3-b]pyridin-5-yl)phenyl)methanesulfonamide], the 50% inhibitory concentration (IC50) is < 50 nM and the inhibition at 1 µM is 98%.
For the compound `CS(=O)(=O)Nc1cccc(-c2cnc3[nH]cc(-c4cnn(Cc5cccc(Cl)c5)c4)c3c2)c1` [Example 10, N-(3-(3-(1-(3-chlorobenzyl)-1H-pyrazol-4-yl)-1H-pyrrolo[2,3-b]pyridin-5-yl)phenyl)methane sulfonamide], the concentration for half-maximal inhibition (IC50) is 50 to 250 nM and the inhibition at 1 µM is 81%.
Turning to `CS(=O)(=O)Nc1cccc(-c2cnc3[nH]cc(-c4cnn(Cc5cccc(C#N)c5)c4)c3c2)c1` [Example 11, N-(3-(3-(1-(3-cyanobenzyl)-1H-pyrazol-4-yl)-1H-pyrrolo[2,3-b]pyridin-5-yl)phenyl)methane sulfonamide], the half-maximal inhibitory concentration (IC50) is < 50 nM, the inhibition at 0.1 µM was determined as 64% and the inhibition at 1 µM was 90%.
Turning to `CS(=O)(=O)Nc1cccc(-c2cnc3[nH]cc(-c4cnn(Cc5ccccc5)c4)c3c2)c1` [Example 12, N-(3-(3-(1-benzyl-1H-pyrazol-4-yl)-1H-pyrrolo[2,3-b]pyridin-5-yl)phenyl) methanesulfonamide], the IC50 is > 250 nM and the inhibition at 1 µM came out at 87%.
For `COc1ccc(-c2cnc3[nH]cc(-c4cnn(Cc5cccc(F)c5)c4)c3c2)cc1NS(C)(=O)=O` [Example 13, N-(5-(3-(1-(3-fluorobenzyl)-1H-pyrazol-4-yl)-1H-pyrrolo[2,3-b]pyridin-5-yl)-2-methoxyphenyl) methane sulfonamide], in that order: < 50 nM and 96%.
For `COc1ccc(-c2cnc3[nH]cc(-c4c(C)nn(Cc5cccc(F)c5)c4C)c3c2)cc1NS(C)(=O)=O` [Example 14, N-(5-(3-(1-(3-fluorobenzyl)-3,5-dimethyl-1H-pyrazol-4-yl)-1H-pyrrolo[2,3-b]pyridin-5-yl)-2-methoxyphenyl)methanesulfonamide], in that order: < 50 nM and 95%.
Regarding `CCS(=O)(=O)Nc1cc(-c2cnc3[nH]cc(-c4c(C)nn(Cc5cccc(F)c5)c4C)c3c2)ccc1OC` [Example 15, N-(5-(3-(1-(3-fluorobenzyl)-3,5-dimethyl-1H-pyrazol-4-yl)-1H-pyrrolo[2,3-b]pyridin-5-yl)-2-methoxyphenyl)ethanesulfonamide], the inhibition at 0.1 µM was 33% and the inhibition at 1 µM was found to be 75%.
On the same counts, the results for `COc1ccc(-c2cnc3[nH]cc(-c4cnn(Cc5cccc(F)c5)c4)c3c2)cc1NS(=O)(=O)C1CC1` [Example 16, N-(5-(3-(1-(3-fluorobenzyl)-1H-pyrazol-4-yl)-1H-pyrrolo[2,3-b]pyridin-5-yl)-2-methoxyphenyl)cyclopropanesulfonamide] are 33% and 66%.
For `CS(=O)(=O)Nc1cc(-c2cnc3[nH]cc(-c4cnn(Cc5cccc(F)c5)c4)c3c2)ccc1N1CCOCC1` [Example 17, N-(5-(3-(1-(3-fluorobenzyl)-1H-pyrazol-4-yl)-1H-pyrrolo[2,3-b]pyridin-5-yl)-2-morpholinophenyl)methanesulfonamide], in that order: 13% and 53%.
As for `CNS(=O)(=O)c1cc(-c2cnc3[nH]cc(-c4c(C)nn(Cc5cccc(F)c5)c4C)c3c2)ccc1OC` [Example 18, 5-(3-(1-(3-fluorobenzyl)-3,5-dimethyl-1H-pyrazol-4-yl)-1H-pyrrolo[2,3-b]pyridin-5-yl)-2-methoxy-N-methylbenzenesulfonamide], the IC50 was in the range of 50 to 250 nM, the inhibition at 0.1 µM was 62% and the inhibition at 1 µM worked out at 94%.
For `COc1ccc(-c2cnc3[nH]cc(-c4c(C)nn(Cc5cc(F)cc(F)c5)c4C)c3c2)cc1NS(C)(=O)=O` [Example 19], in that order: 50 to 250 nM, 63% and 96%.
On the same counts, the results for `CNS(=O)(=O)c1cc(-c2cnc3[nH]cc(-c4c(C)nn(Cc5cc(F)ccc5F)c4C)c3c2)ccc1OC` [Example 20, 5-(3-(1-(2,5-difluorobenzyl)-3,5-dimethyl-1H-pyrazol-4-yl)-1H-pyrrolo[2,3-b]pyridin-5-yl)-2-methoxy-N-methylbenzenesulfonamide] are > 250 nM, 17% and 75%.
